Test results: PubChem BioAssay AID489027 (Sanford-Burnham Center for Chemical Genomics, 2010)
Calls of active or inactive are those of the source. No rule for the calls is given here.

The molecules below were run against UPR counterscreen luciferase reporter, luminescence (assay: luciferase reporter activation, UPR counterscreen line – cell-based, luminescence, counter-screen for adaptive UPR activator project, dose response (AID 489027)).
In the case of `Cc1cccc(NC(=O)CSc2nc(C)c(CC(=O)c3ccc(Br)cc3)c(C)c2C#N)c1C`, the EC50 is reported as > 80 µM (inactive). For `Cc1cccc2cc(C(c3nnnn3Cc3ccccc3)N3CCCc4ccccc43)c(=O)[nH]c12` (configuration not stated), the EC50 was “inactive”. In the case of `CCCCCCCCCCOC(=O)Cn1c(COc2ccc(C)cc2)[n+](C)c2ccccc21`, the EC50 is reported as > 80 µM (inactive). For `COc1ccc(OC)c(-c2nnc3n2N=C(c2ccc(OC)c(OCC4CC4)c2)CS3)c1`, the EC50 was > 80 µM (inactive). In the case of `COc1ccc(-c2cc(-c3ccccc3)c(C#N)c(S(C)(=O)=O)n2)cc1`, the EC50 is reported as 5.05 µM. With `CN(C)S(=O)(=O)c1ccc(N2CCCC2)c(C(=O)Nc2nc3ccccc3s2)c1` the EC50 was 12.7 µM. In the case of `CN(C)c1ccc(/C=C/[N+](=O)[O-])cc1`, the EC50 is reported as 12.6 µM. For `CCOc1cc(/C=N\Nc2ccc([N+](=O)[O-])cc2)ccc1OCC(=O)Nc1ccc(C)c(C)c1`, the EC50 was > 80 µM (inactive). `Cc1ccc(C2=Nc3ccc(Br)cc3C(c3ccncc3)=NN2)cc1` was tested, and the EC50 was “inactive”. With `N#C/C(=C\Nc1ccc2cn[nH]c2c1)c1nc(-c2ccc(Cl)cc2)cs1` the EC50 was “inactive”. For `O=C(/C=C\c1cn(-c2ccccc2)nc1-c1ccccc1)Nc1nccs1`, the EC50 was > 80 µM (inactive). For `COc1ccc2cc1Oc1ccc(cc1)C[C@H]1c3c(cc(OC)c4c3Oc3c(ccc5c3[C@H](C2)N(C)CC5)O4)CCN1C`, the EC50 was 7.91 µM. `CCOC(=O)c1c(-c2ccc(C)o2)csc1NC(=O)COC(=O)c1ccc(NC(N)=O)cc1` was tested, and the EC50 was > 80 µM (inactive). With `CCOC(=O)c1c(NC(=O)Cc2cccs2)sc(C(=O)NC2CCCCC2)c1C` the EC50 was > 80 µM (inactive). With `CCOC(=O)C1=C(C)N=c2s/c(=C3/C(=O)Nc4ccccc43)c(=O)n2C1c1ccc(C)cc1` (configuration not stated) the EC50 was > 80 µM (inactive). For `CCOC(=O)C1=C(C)N=C2c3ccccc3C(=O)C2C1c1ccc(C)cc1` (configuration not stated), the EC50 was > 80 µM (inactive). In the case of `Cc1ccc(CNC(=O)c2ccc3c(=O)n4c(-c5ccc(C)cc5)csc4nc3c2)cc1`, the EC50 is reported as > 80 µM (inactive). `FC(F)(F)c1nnc2c(Sc3ccc(Cl)cc3)nc3ccccc3n12` showed an EC50 of 4.67 µM. Molecule `O=C(Oc1ccccc1/C=C\C(=O)c1cc2ccccc2o1)c1cccc(F)c1` has an EC50 of 8.33 µM. With `CCCCOc1ccccc1NC(=O)Cn1c(-c2nonc2N)nc2ccccc21` the EC50 was “inactive”. With `O=C(NC(=S)Nc1ccc(NC(=O)c2cccs2)cc1)c1cc2ccccc2o1` the EC50 was “inactive”. `C/C(CC(C)(C)C1CCCCC1)=N\NC(N)=S` showed an EC50 of 12.1 µM. `COc1ccc(/C=c2\s/c(=C(/C#N)C(=O)NCc3ccco3)n(-c3ccccc3)c2=O)cc1` was tested, and the EC50 was “inactive”. For `COc1cc(/C=N/Nc2nc(Nc3ccc(C)cc3)nc(-n3nc(C)cc3C)n2)cc(OC)c1OC`, the EC50 was > 80 µM (inactive). For `O=C(COC(=O)c1ccc2[nH]c3c(c2c1)CCCC3)Nc1ccccc1Cl`, the EC50 was > 80 µM (inactive). For `CCc1ccc(-c2nc(CN3CCC(C(=O)NCCN(CC)c4ccccc4)CC3)c(C)o2)cc1`, the EC50 was > 80 µM (inactive). In the case of `COc1ccccc1-c1cc(-c2ccccc2)nc(SC(C(N)=O)c2ccccc2)c1C#N` (configuration not stated), the EC50 is reported as > 80 µM (inactive). `Cc1nn(Cc2c(Cl)cccc2Cl)c(C)c1NC(=O)c1cn(-c2ccccc2)nc1-c1ccccc1` was tested, and the EC50 was 3.67 µM. With `CC(C)c1ccc(/C=C/C(=O)Nc2nc3ccc([N+](=O)[O-])cc3s2)cc1` the EC50 was “inactive”. With `CN1C(=O)/C(=C/c2ccc(C(=O)NC3CCCC3)cc2)Oc2ccccc21` the EC50 was > 80 µM (inactive). `CC(C)=CCCC1(C)C=Cc2c(c(C)cc3c2[nH]c2cc(O)ccc23)O1` (configuration not stated) was tested, and the EC50 was “inactive”. Work on `CN(C)CCCN(C(=O)c1ccc(S(=O)(=O)N2CCc3ccccc3C2)cc1)c1nc2ccc(F)cc2s1` yielded an EC50 of 8.2 µM. For `CC1CCCCC1N1CN=C(Nc2nc3ccccc3s2)NC1` (configuration not stated), the EC50 was > 80 µM (inactive). `O=C(Nc1ccc(O)c2c(=O)cc(-c3cccc(Cl)c3)oc12)c1cccc(Cl)c1` was tested, and the EC50 was “inactive”. In the case of `CC1(C)CC[C@@]23CC[C@]4(C)[C@@](OC2=O)(C3C1)[C@H]1O[C@H]1C1[C@@]2(C)CC[C@H](O)C(C)(C)C2CC[C@]14C` (some centres not stated), the EC50 is reported as “inactive”. For `COc1ccc(CCn2c(=S)[nH]c3cc(C(=O)NCc4ccco4)ccc3c2=O)cc1OC`, the EC50 was > 80 µM (inactive). With `Cc1ccc2c(c1)C(=O)C(=O)N2Cc1ccc(Br)cc1` the EC50 was “inactive”. With `O=C(C[C@H]1C/C=C\C[C@@H](NC(=O)OCC2c3ccccc3-c3ccccc32)C(=O)O[C@@H](c2ccccc2)CNC1=O)N[C@H](CO)Cc1ccccc1` the EC50 was 18.1 µM. `O=C(COC(=O)/C=C/c1cn(-c2ccccc2)nc1-c1cccnc1)Nc1ccc(Cl)cc1Cl` showed an EC50 of 14.3 µM. Work on `COc1ccccc1NC(=O)c1cc2c(CO)cnc(C)c2oc1=Nc1ccccc1` yielded an EC50 of 13.3 µM. With `Cc1ccc(Cn2c(SCC(=O)Nc3cc(C)on3)nc3ccccc3c2=O)cc1` the EC50 was > 80 µM (inactive). With `COc1ccc(C(=O)O/N=C/c2c(C(F)(F)F)nn(C)c2SCc2ccccc2Cl)cc1` the EC50 was “inactive”. `CCOc1ccc(S(=O)(=O)Nc2cccc(C(=O)NCC3(N4CCCCC4)CCCCC3)c2)cc1` was tested, and the EC50 was “inactive”. In the case of `Cc1ccc(CN2C(=O)C(=O)c3cc(C)ccc32)cc1`, the EC50 is reported as “inactive”. With `COc1ccc(OC)c(-c2nnc3n2N=C(c2ccc(OC)c(OC)c2)CS3)c1` the EC50 was > 80 µM (inactive). In the case of `Brc1ccc2c(c1)C(c1ccc(N3CCOCC3)cc1)=NNC(c1cccs1)=N2`, the EC50 is reported as “inactive”. In the case of `CN(c1ccccc1)S(=O)(=O)c1cccc(C(=O)NCCc2ccc(O)c(O)c2)c1`, the EC50 is reported as 6.18 µM. Molecule `CC1CCC(C(C)C)C(OC(=O)Cn2c(-c3ccc(Cl)cc3)[n+](C)c3ccccc32)C1` (configuration not stated) has an EC50 of 13.4 µM. In the case of `O=C1NC(=O)N(Cc2ccc(F)cc2)C(=O)/C1=C/c1cccs1`, the EC50 is reported as 13.8 µM. `CCOC(=O)C(=CNc1nc(-c2ccccc2)c(C(=O)Nc2ccc(-c3ccccc3)cc2)s1)C(=O)OCC` was tested, and the EC50 was “inactive”. For `CCCCNc1c(-c2ccc(SC(C)CC)cc2)nc2cnccn12` (configuration not stated), the EC50 was 14.1 µM. Molecule `c1ccc(N=Nc2ccc3cccccc2-3)cc1` has an EC50 of 11 µM. `Cn1cc(/C=C(\C#N)C(=O)Nc2cccc([N+](=O)[O-])c2)c2ccccc21` was tested, and the EC50 was > 80 µM (inactive). In the case of `O=C(Nc1ccc([N+](=O)[O-])cc1)C(Cc1ccccc1)N1C(=O)c2cccc3cccc(c23)C1=O` (configuration not stated), the EC50 is reported as “inactive”. For `COc1ccc(C(=O)/C=C/c2ccc(O)cc2)c(O)c1C/C=C(\C)CCC=C(C)C`, the EC50 was 15.2 µM. `Cc1nc2cc(NC(=O)CSc3nc4c(C)cccc4cc3C#N)ccc2s1` was tested, and the EC50 was > 80 µM (inactive). With `Cc1c(NC(=O)CSc2ccc(Cl)cc2)cccc1-c1nc2cc(Cl)ccc2o1` the EC50 was > 80 µM (inactive). With `Cc1cccn2c(=O)c3cc(C(=O)NC4CCCCCC4)sc3nc12` the EC50 was > 80 µM (inactive). With `N#Cc1cc2c(nc1SCC(=O)Nc1sc3c(c1C#N)CCC3)CCCC2` the EC50 was “inactive”. `Cc1cccc(Nc2nc3c(S(=O)(=O)c4ccccc4)nnn3c3ccccc23)c1C` gave an EC50 of 12.3 µM. `COc1cc(N(C(=O)Cc2cccs2)C(C(=O)NC2CCCCC2)c2ccc(C)cc2)ccc1-n1cnnn1` (configuration not stated) was tested, and the EC50 was > 80 µM (inactive). For `Cc1ccnc(N/C=C(\C#N)c2nc(-c3cccc(Br)c3)cs2)c1`, the EC50 was 19 µM. Molecule `Oc1cccc(-c2nc3c4c(ncn3n2)-c2ccccc2CC42CCCC2)c1` has an EC50 of 18.6 µM. `Clc1ccc(-c2ccc(/C=N/Nc3nncc(-c4ccccc4)n3)o2)cc1` showed an EC50 of 13.6 µM. `Cc1cccc(NC(=O)/C(C#N)=C/c2cn(CC(=O)NCc3ccco3)c3ccccc23)c1C` was tested, and the EC50 was > 80 µM (inactive). `Cc1ccc(-c2ccnc(-c3ccc(O)cc3)n2)cc1` was tested, and the EC50 was > 80 µM (inactive). With `Oc1ccc(Br)cc1/C=N/Nc1ccccn1` the EC50 was > 80 µM (inactive).
